# Values quoted from earlier work, collected in article PMC3199145 (Future medicinal chemistry, 2011).
# pIC50: −log10 of the molar value.
# Assays:
# Trypanosoma cruzi [1] = tested on: Trypanosoma cruzi
# Trypanosoma cruzi [2] = details: drug concentration that completely clears parasite from T. cruzi infected macrophage cells; P Doyle & J Engel. Unpublished Data
# [3] = tested on: Trypanosoma brucei cathepsin B-like protease (TbCatB); details: read-out: IC50 TbCatB
smiles,measurement,setting,value
C[C@@H](c1nc(-c2ccc(C#N)cc2)cs1)[C@](O)(Cn1cncn1)c1ccc(F)cc1F [Ravuconazole],Efficacy in animal models,Trypanosoma cruzi [1]; compared with posoconazole,more limited than posoconazole
CC[C@@H]([C@H](C)O)n1ncn(-c2ccc(N3CCN(c4ccc(OC[C@@H]5CO[C@@](Cn6cncn6)(c6ccc(F)cc6F)C5)cc4)CC3)cc2)c1=O [posaconazole],Cure of mice with acute and chronic Chagas disease,Trypanosoma cruzi [1]; mice,able to cure mice
"CN1CCN(C(=O)N[C@@H](Cc2ccccc2)C(=O)N[C@H](/C=C/S(=O)(=O)c2ccccc2)CCc2ccccc2)CC1 [Compound 1, K11777]",MTC Trypanosoma cruzi (minimal trypanocidal concentration),Trypanosoma cruzi [2],8 µM
same,pIC50,[3],5.40
same,Efficacy in vivo against T. cruzi parasites,Trypanosoma cruzi [1],effective
